Source: patent US20250313548A1 (Actio Biosciences, Inc., priority 2023, published 2025)

Biological target: human, KCNT1 (Homo sapiens (Human), UniProt Q5JUK3)
Test: FLIPR Tl/K Flux Assay
Type: cell-based
Conditions: HEK293 cells stably expressing human KCNT1; Tl+ flux stimulated with EC80 of agonist Loxapine
Method in brief: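 Inhibition values come from a Hill-equation fit of % inhibition versus log concentration, using normalized fluorescence (Fmax/Fmin) over a 160 s read. The read followed stimulation with Tl+ plus EC80 agonist loxapine after 30 min compound pre-incubation at 25 °C. Cells were KCNT1-expressing HEK293, dye-loaded 1 h in pH 7.4 HEPES/HBSS with 5 mM probenecid.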

human, KCNT1, sequence (Q5JUK3 whole entry): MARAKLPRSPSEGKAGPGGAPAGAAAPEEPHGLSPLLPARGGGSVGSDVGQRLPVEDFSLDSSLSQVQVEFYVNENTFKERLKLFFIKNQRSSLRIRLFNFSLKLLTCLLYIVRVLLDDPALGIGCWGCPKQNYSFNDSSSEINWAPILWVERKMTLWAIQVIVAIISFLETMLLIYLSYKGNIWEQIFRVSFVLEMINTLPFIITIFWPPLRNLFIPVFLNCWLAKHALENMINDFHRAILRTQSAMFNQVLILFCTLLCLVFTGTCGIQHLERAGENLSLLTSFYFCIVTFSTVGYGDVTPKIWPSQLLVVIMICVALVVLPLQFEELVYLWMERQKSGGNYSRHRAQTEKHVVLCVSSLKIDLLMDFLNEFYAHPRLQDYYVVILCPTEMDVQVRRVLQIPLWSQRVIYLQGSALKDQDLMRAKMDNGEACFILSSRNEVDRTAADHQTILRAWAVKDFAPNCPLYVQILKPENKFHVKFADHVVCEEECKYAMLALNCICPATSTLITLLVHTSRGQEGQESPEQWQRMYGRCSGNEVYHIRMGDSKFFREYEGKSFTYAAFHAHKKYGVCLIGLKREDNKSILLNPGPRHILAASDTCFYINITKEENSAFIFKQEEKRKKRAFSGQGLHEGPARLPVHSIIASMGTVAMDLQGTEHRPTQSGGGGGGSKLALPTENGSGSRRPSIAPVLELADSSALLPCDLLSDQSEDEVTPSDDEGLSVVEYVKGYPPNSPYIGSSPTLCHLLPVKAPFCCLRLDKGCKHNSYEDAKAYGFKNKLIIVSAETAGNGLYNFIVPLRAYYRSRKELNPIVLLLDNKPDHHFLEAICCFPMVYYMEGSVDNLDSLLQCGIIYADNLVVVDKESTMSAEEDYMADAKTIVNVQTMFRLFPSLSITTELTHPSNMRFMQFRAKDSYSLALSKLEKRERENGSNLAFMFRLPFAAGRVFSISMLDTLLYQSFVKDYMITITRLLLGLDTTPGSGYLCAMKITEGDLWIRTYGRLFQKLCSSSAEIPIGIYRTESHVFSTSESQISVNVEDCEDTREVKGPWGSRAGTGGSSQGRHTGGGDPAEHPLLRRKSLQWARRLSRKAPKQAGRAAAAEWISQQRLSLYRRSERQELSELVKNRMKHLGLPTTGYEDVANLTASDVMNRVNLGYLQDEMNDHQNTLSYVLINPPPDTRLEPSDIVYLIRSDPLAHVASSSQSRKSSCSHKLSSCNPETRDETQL

Row | SMILES | IC50 [nM]
1 | Cn1nc(C(F)(F)F)cc1C(=O)NC1CCCn2nc(-c3ccnc(C(F)(F)F)c3)cc2C1 (centres unmarked) [Compound I-465] | < 250
2 | COc1cc(C(=O)N[C@H]2CCc3nn(-c4ccnc(C(F)(F)F)c4)cc32)ccn1 [Compound I-332a, (S)-2-Methoxy-N-(2-(2-(trifluoromethyl)pyridin-4-yl)-2,4,5,6-tetrahydrocyclopenta[c]pyrazol-4-yl)isonicotinamide] | < 250
3 | O=C(N[C@H]1CCn2nc(-c3cc(C(F)(F)F)ncc3F)cc21)C12CC(C(F)(F)F)(C1)C2 [Compound I-493a, (S)-N-(2-(5-Fluoro-2-(trifluoromethyl)pyridin-4-yl)-5,6-dihydro-4H-pyrrolo[1,2-b]pyrazol-4-yl)-3-(trifluoromethyl)bicyclo[1.1.1]pentane-1-carboxamide] | < 250
4 | Cn1nc(C(F)(F)F)cc1C(=O)N[C@H]1CCCn2nc(-c3cc(C(F)(F)F)ncc3F)cc21 [Compound I-209a, (S)-N-(2-(5-Fluoro-2-(trifluoromethyl)pyridin-4-yl)-4,5,6,7-tetrahydropyrazolo[1,5-a]pyridin-4-yl)-1-methyl-3-(trifluoromethyl)-1H-pyrazole-5-carboxamide] | < 250
5 | Cn1nc(C(F)(F)F)cc1C(=O)N[C@H]1CCCc2c1nc(-c1ccnc(C(F)(F)F)c1)n2C [Compound I-247a, (S)-1-Methyl-N-(1-methyl-2-(2-(trifluoromethyl)pyridin-4-yl)-4,5,6,7-tetrahydro-1H-benzo[d]imidazol-4-yl)-3-(trifluoromethyl)-1H-pyrazole-5-carboxamide] | > 1000
6 | O=C(N[C@H]1CCCc2nc(-c3cc(C4CC4)ncc3F)oc21)c1cncc(C(F)(F)F)n1 [Compound I-156a] | < 250
7 | O=C(N[C@H]1CCc2nn(-c3ccnc(C(F)(F)F)c3)cc21)c1ccccc1 [Compound I-91a] | < 250
8 | O=C(N[C@H]1CCCc2nc(-c3cc(C4CC4)ncc3F)oc21)c1cccc(OC(F)(F)F)c1 [Compound I-159a, (S)-N-(2-(2-Cyclopropyl-5-fluoropyridin-4-yl)-4,5,6,7-tetrahydrobenzo[d]oxazol-7-yl)-3-(trifluoromethoxy)benzamide] | < 250
9 | Cn1nc(C(F)(F)F)cc1C(=O)N[C@H]1CCCCc2nn(-c3ccnc(C4CC4)c3)cc21 [Compound I-56a] | < 250
10 | O=C(N[C@H]1CCCn2nc(-c3ccnc(C(F)(F)F)c3)cc21)c1ccn(C(F)(F)F)n1 [Compound I-382a] | < 250
11 | Cc1cccc(C(=O)N[C@@H]2CCCCc3nn(-c4ccnc(C5CC5)c4)cc32)c1 [Compound I-58b] | 500 to 1000
12 | COC12CC(C(=O)N[C@H]3CCn4nc(-c5cc(C(F)(F)F)ncc5F)cc43)(C1)C2 [Compound I-525a, (S)-N-(2-(5-Fluoro-2-(trifluoromethyl)pyridin-4-yl)-5,6-dihydro-4H-pyrrolo[1,2-b]pyrazol-4-yl)-3-methoxybicyclo[1.1.1]pentane-1-carboxamide] | < 250
13 | O=C(N[C@H]1CCCn2nc(-c3ccnc(C(F)(F)F)c3)cc21)c1cn(C2CC2)nn1 [Compound I-401a] | > 1000
14 | COc1cc(-c2cc3n(n2)CC[C@@H]3NC(=O)c2cc(F)cc(F)c2)ccn1 [Compound I-447a] | < 250
15 | O=C(N[C@H]1CCCn2nc(-c3ccnc(C(F)(F)F)c3)cc21)c1cc(F)cc(C2CC2)c1 [Compound I-580a, (S)-3-Cyclopropyl-5-fluoro-N-(2-(2-(trifluoromethyl)pyridin-4-yl)-4,5,6,7-tetrahydropyrazolo[1,5-a]pyridin-4-yl)benzamide] | < 250
16 | Cc1nn2ccccc2c1C(=O)N[C@H]1CCCn2nc(-c3ccnc(C(F)(F)F)c3)cc21 [Compound I-434a] | < 250

Row | SMILES | IC50 [nM]
17 | Cc1ccn2ncc(C(=O)N[C@H]3CCCn4nc(-c5ccnc(C(F)(F)F)c5)cc43)c2n1 [Compound I-440a] | 500 to 1000
18 | O=C(N[C@H]1CCCc2oc(-c3ccnc(C4CC4)c3)nc21)c1cncc(C(F)(F)F)n1 [Compound I-231a] | < 250
19 | Cc1cnc(C(F)(F)F)cc1-c1nc2c(o1)CCC[C@@H]2NC(=O)c1cc(C(F)(F)F)nn1C [Compound I-178a, (S)-1-Methyl-N-(2-(5-methyl-2-(trifluoromethyl)pyridin-4-yl)-4,5,6,7-tetrahydrobenzo[d]oxazol-4-yl)-3-(trifluoromethyl)-1H-pyrazole-5-carboxamide] | < 250
20 | O=C(N[C@H]1CCCn2nc(-c3ccnc(C(F)(F)F)c3)cc21)c1ccnn1CC(F)F [Compound I-403a] | < 250
21 | N#Cc1cc(F)cc(C(=O)N[C@H]2CCn3nc(-c4ccnc(C(F)(F)F)c4)cc32)c1 [Compound I-323a, (S)-3-Cyano-5-fluoro-N-(2-(2-(trifluoromethyl)pyridin-4-yl)-5,6-dihydro-4H-pyrrolo[1,2-b]pyrazol-4-yl)benzamide] | < 250
22 | O=C(N[C@H]1CCn2nc(-c3ccnc(C(F)(F)F)c3)cc21)c1cc(F)cc(C2CC2)c1 [Compound I-569a, (S)-3-Cyclopropyl-5-fluoro-N-(2-(2-(trifluoromethyl)pyridin-4-yl)-5,6-dihydro-4H-pyrrolo[1,2-b]pyrazol-4-yl)benzamide] | < 250
23 | N#Cc1cc(F)cc(C(=O)N[C@H]2CCc3nn(-c4ccnc(C(F)(F)F)c4)cc32)c1 [Compound I-455a] | < 250
24 | COc1cc(-c2nc3c(o2)[C@@H](NC(=O)c2ccnc(OC(F)(F)F)c2)CCC3)c(F)cn1 [Compound I-175a] | < 250
25 | COc1cc(-c2cc3n(n2)CCCC[C@H]3NC(=O)c2cc(F)cc(C#N)c2)c(F)cn1 [Compound I-516b] | 500 to 1000
26 | CC(C)c1cc(C(=O)N[C@H]2CCCn3nc(-c4ccnc(C(F)(F)F)c4)cc32)n(C)n1 [Compound I-350a] | < 250
27 | Cc1cc(Cl)ccc1C(=O)N[C@@H]1CCc2nn(-c3ccnc(C(F)(F)F)c3)cc21 [Compound I-95b] | > 1000
28 | N#Cc1cccc(C(=O)N[C@H]2CCn3nc(-c4ccnc(C(F)(F)F)c4)cc32)c1 [Compound I-342a, (S)-3-Cyano-N-(2-(2-(trifluoromethyl)pyridin-4-yl)-5,6-dihydro-4H-pyrrolo[1,2-b]pyrazol-4-yl)benzamide] | < 250
29 | COc1cc(-c2cc3n(n2)CCCC[C@@H]3NC(=O)c2cc(C(F)(F)F)nn2C)c(F)cn1 [Compound I-212a, (S)-N-(2-(5-Fluoro-2-methoxypyridin-4-yl)-5,6,7,8-tetrahydro-4H-pyrazolo[1,5-a]azepin-4-yl)-1-methyl-3-(trifluoromethyl)-1H-pyrazole-5-carboxamide] | < 250
30 | Cn1nc(C(F)(F)F)cc1C(=O)N[C@H]1CCc2nn(-c3ccnc(OC(F)(F)F)c3)cc21 [Compound I-73a] | < 250
31 | O=C(N[C@H]1CCn2nc(-c3cc(C(F)(F)F)ncc3F)cc21)c1cccc(C(F)(F)F)c1 [Compound I-139a, (S)-N-(2-(5-Fluoro-2-(trifluoromethyl)pyridin-4-yl)-5,6-dihydro-4H-pyrrolo[1,2-b]pyrazol-4-yl)-3-(trifluoromethyl)benzamide] | < 250
32 | CS(=O)(=O)c1cccc(C(=O)N[C@H]2CCc3nn(-c4ccnc(C(F)(F)F)c4)cc32)c1 [Compound I-395a] | > 1000
